Source: PubChem BioAssay (NCI)
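Test compounds were applied to cells in 96-well plates for 48 hours at 5 doses. GI50: concentration for 50% inhibition of growth. TGI denotes the concentration required for complete inhibition of growth.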

How the values were obtained:
Assay in all cases: growth of human tumour cells (NCI), 48 h
A498 renal = tested on: A498 renal
A549 NSCLC = tested on: A549 NSCLC
CAKI-1 renal = tested on: CAKI-1 renal
EKVX NSCLC = tested on: EKVX NSCLC
K-562 leukemia = tested on: K-562 leukemia
MALME-3M melanoma = tested on: MALME-3M melanoma
NCI-H226 lung = tested on: NCI-H226 lung
NCI-H23 lung = tested on: NCI-H23 lung
SK-MEL-2 melanoma = tested on: SK-MEL-2 melanoma
UACC-62 melanoma = tested on: UACC-62 melanoma

SMILES: CCCCNC(=S)Nc1nc(C(=O)NNC(=S)NC2CCCCC2)cs1
- TGI (A498 renal): > 100 µM
- TGI (A549 NSCLC): > 100 µM
- TGI (CAKI-1 renal): > 100 µM
- TGI (EKVX NSCLC): > 100 µM
- TGI (K-562 leukemia): > 100 µM
- TGI (MALME-3M melanoma): > 100 µM
- TGI (NCI-H226 lung): > 100 µM
- TGI (NCI-H23 lung): > 100 µM
- TGI (SK-MEL-2 melanoma): > 100 µM
- TGI (UACC-62 melanoma): > 100 µM

SMILES: CC(C)(C)c1cc(C2=NN(c3ccccc3)C(c3ccccc3)C2)cc(C(C)(C)C)c1O (stereo not given)
- TGI (A498 renal): > 100 µM
- TGI (A549 NSCLC): > 100 µM
- TGI (CAKI-1 renal): > 100 µM
- TGI (EKVX NSCLC): > 100 µM
- TGI (K-562 leukemia): > 100 µM
- TGI (MALME-3M melanoma): > 100 µM
- TGI (NCI-H226 lung): > 100 µM
- TGI (NCI-H23 lung): > 100 µM
- TGI (SK-MEL-2 melanoma): > 100 µM
- TGI (UACC-62 melanoma): > 100 µM

SMILES: N#Cc1c(N)sc2c1-c1ccccc1OC2
- TGI (A498 renal): > 100 µM
- TGI (A549 NSCLC): > 100 µM
- TGI (EKVX NSCLC): 31 µM
- TGI (K-562 leukemia): > 100 µM
- TGI (MALME-3M melanoma): > 100 µM
- TGI (NCI-H226 lung): > 100 µM
- TGI (NCI-H23 lung): > 100 µM
- TGI (SK-MEL-2 melanoma): > 100 µM
- TGI (UACC-62 melanoma): > 100 µM

SMILES: CSc1c(C#N)c(N)nc2c(N=Nc3ccc(Cl)cc3)c(N)nn12
- TGI (A498 renal): > 100 µM
- TGI (A549 NSCLC): > 73.8 µM
- TGI (CAKI-1 renal): 34.5 µM
- TGI (EKVX NSCLC): 11.4 µM
- TGI (K-562 leukemia): 4.75 µM
- TGI (MALME-3M melanoma): 16.4 µM
- TGI (NCI-H226 lung): 37.9 µM
- TGI (NCI-H23 lung): 7.25 µM
- TGI (SK-MEL-2 melanoma): 8.82 µM
- TGI (UACC-62 melanoma): 8.77 µM

SMILES: N#CCCN(CCC#N)c1ccc(/C=C2\N=C(c3ccccc3)N(NC(N)=S)C2=O)cc1
- TGI (A498 renal): > 100 µM
- TGI (A549 NSCLC): > 100 µM
- TGI (CAKI-1 renal): > 100 µM
- TGI (EKVX NSCLC): > 100 µM
- TGI (K-562 leukemia): > 100 µM
- TGI (MALME-3M melanoma): > 100 µM
- TGI (NCI-H226 lung): > 100 µM
- TGI (SK-MEL-2 melanoma): > 100 µM
- TGI (UACC-62 melanoma): > 100 µM

SMILES: COc1cc(/C=C/C(=O)c2c(C)nc3ccccc3c2C)ccc1OCCCOc1cc2c(cc1OC)C(=O)N1CCC[C@H]1C=N2
- GI50 (A498 renal): 0.0194 µM
- TGI (A498 renal): 0.0419 µM
- GI50 (A549 NSCLC): 0.0268 µM
- TGI (A549 NSCLC): 0.0623 µM
- GI50 (CAKI-1 renal): 0.0291 µM
- TGI (CAKI-1 renal): 0.138 µM
- GI50 (EKVX NSCLC): 0.0555 µM
- TGI (EKVX NSCLC): 0.453 µM
- GI50 (K-562 leukemia): 0.011 µM
- TGI (K-562 leukemia): 0.0346 µM
- GI50 (NCI-H226 lung): 0.0227 µM
- TGI (NCI-H226 lung): 0.0616 µM
- GI50 (NCI-H23 lung): 0.0197 µM
- TGI (NCI-H23 lung): 0.0459 µM
- GI50 (SK-MEL-2 melanoma): 0.0877 µM
- TGI (SK-MEL-2 melanoma): 0.331 µM
- GI50 (UACC-62 melanoma): 0.017 µM
- TGI (UACC-62 melanoma): 0.0321 µM

SMILES: Cn1c(-c2ccccc2)cc2c3ccsc3c3ccsc3c21
- TGI (A498 renal): > 100 µM
- TGI (A549 NSCLC): > 100 µM
- TGI (CAKI-1 renal): > 100 µM
- TGI (MALME-3M melanoma): > 100 µM
- TGI (NCI-H226 lung): > 100 µM
- TGI (NCI-H23 lung): > 100 µM
- TGI (SK-MEL-2 melanoma): > 100 µM
- TGI (UACC-62 melanoma): > 100 µM

SMILES: O=C1/C(=C/c2ccccc2O)N=C(c2ccccc2)N1c1nc2ccccc2s1
- TGI (A498 renal): 53.1 µM
- TGI (CAKI-1 renal): > 100 µM
- TGI (EKVX NSCLC): > 100 µM
- TGI (K-562 leukemia): > 100 µM
- TGI (NCI-H226 lung): 77.8 µM
- TGI (NCI-H23 lung): 38.5 µM
- TGI (SK-MEL-2 melanoma): 43.4 µM

SMILES: CO/N=C(\C)COc1ccc2c(=O)c(-c3ccccc3)coc2c1
- GI50 (A549 NSCLC): 27.1 µM
- TGI (A549 NSCLC): > 100 µM
- GI50 (K-562 leukemia): > 100 µM
- TGI (K-562 leukemia): > 100 µM
- GI50 (NCI-H226 lung): 36.4 µM
- TGI (NCI-H226 lung): > 100 µM
- GI50 (NCI-H23 lung): 26.4 µM
- TGI (NCI-H23 lung): 89 µM
- GI50 (UACC-62 melanoma): 26.3 µM
- TGI (UACC-62 melanoma): 93.6 µM

SMILES: CCOC(=O)NC(NC1=NCCS1)(C(=O)OCC)C(F)(F)F (stereo not given)
- TGI (A498 renal): > 100 µM
- TGI (A549 NSCLC): > 100 µM
- TGI (CAKI-1 renal): > 100 µM
- TGI (EKVX NSCLC): > 100 µM
- TGI (K-562 leukemia): > 100 µM
- TGI (MALME-3M melanoma): > 100 µM
- TGI (NCI-H226 lung): > 100 µM
- TGI (NCI-H23 lung): > 100 µM
- TGI (SK-MEL-2 melanoma): > 100 µM
